Source: ChEMBL document CHEMBL1127946, “The squalestatins: Potent inhibitors of squalene synthase, 3-hydroxymethyl derivatives” (Bioorg Med Chem Lett, 1994)

target: T1, Squalene synthase (Rattus norvegicus, UniProt Q02769); experiment: In vitro inhibition of rat squalene synthase
T1 sequence (Q02769 whole entry): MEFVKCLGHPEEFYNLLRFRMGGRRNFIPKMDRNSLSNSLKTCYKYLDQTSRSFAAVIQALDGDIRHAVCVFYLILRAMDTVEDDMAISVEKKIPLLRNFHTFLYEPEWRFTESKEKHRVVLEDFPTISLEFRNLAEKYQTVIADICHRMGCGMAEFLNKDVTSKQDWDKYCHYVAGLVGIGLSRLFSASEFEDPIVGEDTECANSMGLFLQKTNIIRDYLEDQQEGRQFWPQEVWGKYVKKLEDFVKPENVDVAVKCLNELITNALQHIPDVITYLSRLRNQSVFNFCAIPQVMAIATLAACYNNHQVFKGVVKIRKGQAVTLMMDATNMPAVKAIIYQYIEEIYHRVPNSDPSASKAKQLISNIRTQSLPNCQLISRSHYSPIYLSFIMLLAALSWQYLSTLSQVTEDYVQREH

Compound | IC50
C=C(CC[C@]12OC[C@@](O)(C(=O)O)[C@](C(=O)O)(O1)[C@H](O)[C@H]2O)[C@@H](OC(C)=O)[C@H](C)Cc1ccccc1 | 25000 nM
CC[C@H](C)C[C@H](C)CCC(=O)O[C@@H]1[C@@H](O)[C@@]2(CCC(=O)[C@@H](O)[C@H](C)Cc3ccccc3)O[C@H](CO)[C@@](O)(C(=O)O)[C@]1(C(=O)O)O2 | 740 nM
C=C(CC[C@]12O[C@H](CO)[C@@](O)(C(=O)O)[C@](C(=O)O)(O1)[C@H](OC(=O)/C=C/[C@@H](C)C[C@@H](C)CC)[C@H]2O)[C@@H](OC(C)=O)[C@H](C)Cc1ccccc1 | 15 nM
C=C(CC[C@]12O[C@H](CO)[C@@](O)(C(=O)O)[C@](C(=O)O)(O1)[C@H](OC(=O)CCCCCC)[C@H]2O)[C@@H](OC(C)=O)[C@H](C)Cc1ccccc1 | 245 nM
C=C(CC[C@]12O[C@H](CO)[C@@](O)(C(=O)O)[C@](C(=O)O)(O1)[C@H](OC(=O)CCCCCCCC)[C@H]2O)[C@@H](OC(C)=O)[C@H](C)Cc1ccccc1 | 140 nM
C=C(CC[C@]12O[C@H](CO)[C@@](O)(C(=O)OC)[C@](C(=O)O)(O1)[C@H](OC(=O)/C=C/[C@@H](C)C[C@@H](C)CC)[C@H]2O)[C@@H](OC(C)=O)[C@H](C)Cc1ccccc1 | 79 nM
C=C(CC[C@]12O[C@H](CO)[C@@](O)(C(=O)O)[C@](C(=O)O)(O1)[C@H](OC(=O)CCC)[C@H]2O)[C@@H](OC(C)=O)[C@H](C)Cc1ccccc1 | 800 nM

Continued by falling IC50, values first:

IC50 | Compound
395 nM | C=C(CC[C@]12O[C@H](CO)[C@@](O)(C(=O)O)[C@](C(=O)O)(O1)[C@H](O)[C@H]2O)[C@@H](OC(C)=O)[C@H](C)Cc1ccccc1
119 nM | C=C(CC[C@]12O[C@H](CO)[C@@](O)(C(=O)O)[C@](C(=O)O)(O1)[C@H](OC(=O)CCC(C)C)[C@H]2O)[C@@H](OC(C)=O)[C@H](C)Cc1ccccc1
44 nM | C=C(CC[C@]12O[C@H](CO)[C@@](O)(C(=O)O)[C@](C(=O)O)(O1)[C@H](OC(=O)CC[C@@H](C)C[C@@H](C)CC)[C@H]2O)[C@@H](OC(C)=O)[C@H](C)Cc1ccccc1
23 nM | C=C(CC[C@]12OC[C@@](O)(C(=O)O)[C@](C(=O)O)(O1)[C@H](OC(=O)/C=C/[C@@H](C)C[C@@H](C)CC)[C@H]2O)[C@@H](OC(C)=O)[C@H](C)Cc1ccccc1
22 nM | C=C(CC[C@]12O[C@H](CO)[C@@](O)(C(=O)O)[C@](C(=O)O)(O1)[C@H](OC(=O)CC[C@@H](C)C[C@@H](C)CC)[C@H]2O)[C@@H](O)[C@H](C)Cc1ccccc1
21 nM | C=C(CC[C@]12O[C@H](CO)[C@@](O)(C(=O)O)[C@](C(=O)O)(O1)[C@H](OC(=O)/C=C/[C@@H](C)C[C@@H](C)CC)[C@H]2O)[C@@H](O)[C@H](C)Cc1ccccc1
